Measurements as given in patent US8846684B2 (priority 2011, dated 2014).
Where two headings read alike, the source gives them in different places.

What was measured:
WEEV = assay type: cell-based, Western equine encephalitis virus
WEEV replicon = experiment: microbe, parasite or virus in culture; assay type: cell-based, Western equine encephalitis virus
NSV = assay type: cell-based, neuroadapted Sindbis virus
wild-type VEEV = conditions: in vivo; cited from earlier work
[1] = system: vaccine strain of Venezuelan equine encephalitis virus (VEEV); conditions: mouse, in vivo; cited from earlier work
[2] = Western equine encephalitis virus, read-out: Activity IC50 (μM)
[3] = Western equine encephalitis virus
[4] = Western equine encephalitis virus; read-out: 50 μM (% control) Luc

Compound | IC50 (WEEV replicon; [3]) | activity at 50 µM (WEEV replicon; [4]) | further results
O=C(NCc1ccccc1)C1CCN(C(=O)c2cc3ccccc3n2Cc2ccc(Cl)cc2)CC1 [CCG 102516, N-benzyl-1-(1-(4-chlorobenzyl)-1H-indole-2-carbonyl)piperidine-4-carboxamide] | – | – | WEEV titers (virion production, plaque assay) (WEEV): significantly reduced; IC50 (WEEV replicon; [2]): 18.6 µM; activity at 2 µM (WEEV replicon; Western equine encephalitis virus; read-out: Activity (% control LUC) 2 μM): 88%; activity at 10 µM (WEEV replicon; Western equine encephalitis virus; read-out: Activity (% control LUC) 10 μM): 76.9%; activity at 50 µM (WEEV replicon; Western equine encephalitis virus; read-out: Activity (% control LUC) 50 μM): 59.7%; NSV titers (virion production, plaque assay) (NSV): significantly reduced
C[C@@H](NC(=O)C1CCN(C(=O)c2cc3ccccc3n2Cc2ccc(Cl)cc2)CC1)c1ccccc1 [CCG 203926, (R)-1-(1-(4-chlorobenzyl)-1H-indole-2-carbonyl)-N-(1-phenylethyl)piperidine-4-carboxamide] | – | – | WEEV titers (virion production, plaque assay) (WEEV): significantly reduced; cytotoxicity (BSR-T7/C3 clone): relatively low cytotoxicity; activity in the replicon inhibition assay (in words) (WEEV replicon): active; activity at 2 µM (WEEV replicon; Western equine encephalitis virus, read-out: Activity (% control LUC) 2 μM): 100%; activity at 10 µM (WEEV replicon; Western equine encephalitis virus, read-out: Activity (% control LUC) 10 μM): 55%; activity at 50 µM (WEEV replicon; Western equine encephalitis virus, read-out: Activity (% control LUC) 50 μM): 17%; IC50 (WEEV replicon; [2]): 8.7 µM; NSV titers (virion production, plaque assay) (NSV): significantly reduced
O=C(NCCc1ccncc1)C1CCN(C(=O)c2cccn2Cc2ccc(Cl)cc2)CC1 [CCG 206381, 1-(1-(4-chlorobenzyl)-1H-pyrrole-2-carbonyl)-N-(2-(pyridin-4-yl)ethyl)piperidine-4-carboxamide] | 0.68 µM | 9.9% | –
O=C(NCC1Cc2ccccc2C1)C1CCN(C(=O)c2cc3ccccc3n2Cc2ccc(Cl)cc2)CC1 [CCG 206382, 1-(1-(4-chlorobenzyl)-1H-indole-2-carbonyl)-N-((2,3-dihydro-1H-inden-2-yl)methyl)piperidine-4-carboxamide] | 0.53 µM | 25.8% | –
COc1cccc(CCNC(=O)C2CCN(C(=O)c3cc4ccccc4n3Cc3ccc(Cl)cc3)CC2)c1 [CCG 206395, 1-(1-(4-chlorobenzyl)-1H-indole-2-carbonyl)-N-(3-methoxyphenethyl)piperidine-4-carboxamide] | 11.7 µM | 38.4% | –
O=C(NCCc1ccc(F)cc1)C1CCN(C(=O)c2cc3ccccc3n2Cc2ccc(Cl)cc2)CC1 [CCG 206396, 1-(1-(4-chlorobenzyl)-1H-indole-2-carbonyl)-N-(4-fluorophenethyl)piperidine-4-carboxamide] | 10.6 µM | 34.9% | –
O=C(NCCc1ccccc1)C1CCN(C(=O)c2cc3ccccc3n2Cc2ccc(Cl)cc2)CC1 [CCG 206397, 1-(1-(4-chlorobenzyl)-1H-indole-2-carbonyl)-N-phenethylpiperidine-4-carboxamide] | 15.2 µM | 40.2% | –
COc1ccc(CCNC(=O)C2CCN(C(=O)c3cc4ccccc4n3Cc3ccc(Cl)cc3)CC2)cc1 [CCG 206398, 1-(1-(4-chlorobenzyl)-1H-indole-2-carbonyl)-N-(4-methoxyphenethyl)piperidine-4-carboxamide] | 7.1 µM | 12.9% | –
O=C(NCc1cccc(F)c1)C1CCN(C(=O)c2cc3ccccc3n2Cc2ccc(Cl)cc2)CC1 [CCG 206399, 1-(1-(4-chlorobenzyl)-1H-indole-2-carbonyl)-N-(3-fluorobenzyl)piperidine-4-carboxamide] | – | 50.4% | –
O=C(NCCc1ccc(Cl)cc1)C1CCN(C(=O)c2cc3ccccc3n2Cc2ccc(Cl)cc2)CC1 [CCG 206400, 1-(1-(4-chlorobenzyl)-1H-indole-2-carbonyl)-N-(4-chlorophenethyl)piperidine-4-carboxamide] | 7.45 µM | 28.6% | –
C#CCn1c(C(=O)N2CCC(C(=O)N(C)Cc3ccccc3)CC2)cc2ccccc21 [CCG 206401, N-benzyl-N-methyl-1-(1-(prop-2-yn-1-yl)-1H-indole-2-carbonyl)piperidine-4-carboxamide] | – | 57.4% | –
Cc1cccc2cc(C(=O)N3CCC(C(=O)NCc4ccccc4)CC3)n(Cc3ccc(Cl)cc3)c12 [CCG 206447, N-benzyl-1-(1-(4-chlorobenzyl)-7-methyl-1H-indole-2-carbonyl)piperidine-4-carboxamide] | 60.7 µM | 46.8% | –
CC(C)c1ccc(CCNC(=O)C2CCN(C(=O)c3cc4ccccc4n3Cc3ccc(Cl)cc3)CC2)cc1 [CCG 206461, 1-(1-(4-chlorobenzyl)-1H-indole-2-carbonyl)-N-(4-isopropylphenethyl)piperidine-4-carboxamide] | 2.9 µM | 32.6% | –
O=C(c1cc2ccccc2n1Cc1ccc(Cl)cc1)N1CCC2C(=O)N(Cc3ccccc3)CC2C1 (stereo not shown) [CCG 206485, 2-benzyl-5-(1-(4-chlorobenzyl)-1H-indole-2-carbonyl)octahydro-1H-pyrrolo[3,4-c]pyridin-1-one] | 17.1 µM | 39.4% | –
Cc1ccc(CCNCC2CCN(C(=O)c3cc4ccccc4n3Cc3ccc(F)cc3)CC2)cc1 [CCG 206486, (1-(4-fluorobenzyl)-1H-indol-2-yl)(4-(((4-methylphenethyl)amino)methyl)piperidin-1-yl)methanone] | 6.1 µM | 0% | –
C[C@@H](NCC1CCN(C(=O)c2cc3ccccc3n2Cc2ccc(F)cc2)CC1)c1ccccc1 [CCG 206499, (R)-(1-(4-fluorobenzyl)-1H-indol-2-yl)(4-(((1-phenylethyl)amino)methyl)piperidin-1-yl)methanone] | – | 0% | –
O=C(c1cc2ccccc2n1Cc1ccc(F)cc1)N1CCC(CNCc2ccccc2)CC1 [CCG 206500, (4-((benzylamino)methyl)piperidin-1-yl)(1-(4-fluorobenzyl)-1H-indol-2-yl)methanone] | 6.5 µM | 0% | –
C[C@H](NCC1CCN(C(=O)c2cc3ccccc3n2Cc2ccc(F)cc2)CC1)c1ccccc1 [CCG 206501, (S)-(1-(4-fluorobenzyl)-1H-indol-2-yl)(4-(((1-phenylethyl)amino)methyl)piperidin-1-yl)methanone] | 8.9 µM | 0% | –
O=C(c1cc2ccccc2n1Cc1ccc(F)cc1)N1CCC(CN2CCOCC2)CC1 [CCG 206502, (1-(4-fluorobenzyl)-1H-indol-2-yl)(4-(morpholinomethyl)piperidin-1-yl)methanone] | 40.6 µM | 39.1% | –
CN(Cc1ccccc1)CC1CCN(C(=O)c2cc3ccccc3n2Cc2ccc(F)cc2)CC1 [CCG 206503, (4-((benzyl(methyl)amino)methyl)piperidin-1-yl)(1-(4-fluorobenzyl)-1H-indol-2-yl)methanone] | 25.1 µM | 28.2% | –
CC(NC(=O)C1CCN(C(=O)c2cc3ccccc3n2Cc2ccc(Cl)cc2)CC1)C1Cc2ccccc2C1 (stereo not shown) [CCG 206549, 1-(1-(4-chlorobenzyl)-1H-indole-2-carbonyl)-N-(1-(2,3-dihydro-1H-inden-2-yl)ethyl)piperidine-4-carboxamide] | 1.7 µM | 36.9% | –
O=C(NCC1CCc2ccccc21)C1CCN(C(=O)c2cc3ccccc3n2Cc2ccc(Cl)cc2)CC1 (stereo not shown) [CCG 206550, 1-(1-(4-chlorobenzyl)-1H-indole-2-carbonyl)-N-((2,3-dihydro-1H-inden-1-yl)methyl)piperidine-4-carboxamide] | 7.1 µM | 47.4% | –
O=C(NCCc1ccncc1)C1CCN(C(=O)c2nc3ccccc3n2Cc2ccc(Cl)cc2)CC1 [CCG 206565, 1-(1-(4-chlorobenzyl)-1H-benzo[d]imidazole-2-carbonyl)-N-(2-(pyridin-4-yl)ethyl)piperidine-4-carboxamide] | 4.07 µM | 12% | –
CC(CNC(=O)C1CCN(C(=O)c2cc3ccccc3n2Cc2ccc(Cl)cc2)CC1)c1ccncc1 (stereo not shown) [CCG 206580, 1-(1-(4-chlorobenzyl)-1H-indole-2-carbonyl)-N-(2-(pyridin-4-yl)propyl)piperidine-4-carboxamide] | 1.66 µM | 13.4% | –
O=C(NCC1COc2cnccc21)C1CCN(C(=O)c2cc3ccccc3n2Cc2ccc(Cl)cc2)CC1 (stereo not shown) [CCG 206581, 1-(1-(4-chlorobenzyl)-1H-indole-2-carbonyl)-N-((2,3-dihydrofuro[2,3-c]pyridin-3-yl)methyl)piperidine-4-carboxamide] | 3.58 µM | 8.6% | –
O=C(NCc1ccccc1)C1CCN(C(=O)c2nccn2Cc2ccc(Cl)cc2)CC1 [CCG 206586, N-benzyl-1-(1-(4-chlorobenzyl)-1H-imidazole-2-carbonyl)piperidine-4-carboxamide] | – | 69.5% | –
(−)-carbodine | – | – | benefit following wild-type VEEV challenge (wild-type VEEV): no benefit; disease outcome [1]: improved outcome; lowering of peak CNS viral titers [1]: half-log
